{"source": "patent US20040242871A1", "about": "“Novel arylheteroalkylamine derivatives” (priority 2001, published 2004)", "target": "T1, Nitric oxide synthase from induced murine macrophage cell line J774A-1 (Mus musculus, UniProt P29477)", "T1 construct": "The reaction is started by adding 50 μl of cell lysate (prepared as above); endogenous in cells; host or cells: J774A-1 murine macrophage cell line, induced with LPS and IFN-gamma; crude cell lysate", "assay": "Screen 1: nitric oxide synthase inhibition, conversion of 3H-L-arginine into 3H-L-citrulline, lysate of induced J774A-1 cells", "format": "biochemical", "settings": "J774A-1 cell lysate (LPS/IFNg induced), 1 hour at room temperature; read-out: IC50 (concentration of drug substance which gives 50% enzyme inhibition in the assay)", "experimental": "The activity of compounds of formula (I), or a pharmaceutically acceptable salt, enantiomer or racemate thereof, may be screened for nitric oxide synthase inhibiting activity by a procedure based on that of Förstermann et al., Eur. J. Pharm., 1992, 225, 161-165. Nitric oxide synthase converts ^3H-L-arginine into ^3H-L-citrulline which can be separated by cation exchange chromatography and quantified by liquid scintillation counting.\nEnzyme is prepared, after induction, from the cultured murine macrophage cell line J774A-1 (obtained from the laboratories of the Imperial Cancer Research Fund). J774A-1 cells are cultured in Dulbeccos Modified Eagles Medium (DMEM) supplemented with 10% foetal bovine serum, 4 mM L-glutamine and antibiotics (100 units/ml penicillin G, […] streptomycin & […] amphotericin B). Cells are routinely grown in […] flasks containing 35 ml medium kept at 37° C. and in a humidified atmosphere containing 5% CO2. […]\nLabelled L-citrulline is separated from labelled L-arginine using Dowex AG-SOW. […] After allowing the samples to dry the L-citrulline is quantified by scintillation counting.\nIn a typical experiment basal activity is 300 dpm per 75 μl sample which is increased to 1900 dpm in the reagent controls. […] Compounds are tested at a range of concentrations and from the inhibitions obtained IC50 values are calculated. […]", "note": "pIC50: −log10 of the molar value.", "data": [{"smiles": "N=C(N)NN", "note": "[aminoguanidie]", "values": [{"measurement": "pIC50", "result": 5.00}]}]}
